# Values quoted from earlier work, collected in US6838050B1, “Methods and devices for providing anti-infective activity to a medical device” (Oxibio, Inc., priority 1999, dated 2005).
# What was measured:
# [1] = human
structure (smiles),measurement,setting,value
"II [free iodine, elemental iodine]",upper limit of solubility,,~320 ppm
same,upper daily threshold for total iodine exposure posing no significant health threat,[1],≤ 1000 micrograms per day
same,free iodine level at which effective microbial killing occurs,bacteria and viruses,not less than 0.1 ppm
same,level in solution sufficient to kill bacteria and viruses,bacteria and viruses,A few parts per million
